# Source: patent US20220289753A1, “SHP2 INHIBITORS” (IRBM S.P.A., priority 2019, published 2022)
# Legend:
# [1] = molecular target: T1, SHP-2 enzyme (Met1-Leu525) (Homo sapiens, UniProt Q06124); assay: SHP2 inhibition enzymatic assay (DiFMUP substrate, IRS1 peptide activation); type: biochemical; details: SHP2 wt; activated by 500 nM IRS1 peptide; 75 μM DiFMUP substrate
# T1 construct: synthetized by Origene, Met1-Leu525, cat #TP750155; purchased Origene TP750155
# T1 sequence (Q06124 1-525): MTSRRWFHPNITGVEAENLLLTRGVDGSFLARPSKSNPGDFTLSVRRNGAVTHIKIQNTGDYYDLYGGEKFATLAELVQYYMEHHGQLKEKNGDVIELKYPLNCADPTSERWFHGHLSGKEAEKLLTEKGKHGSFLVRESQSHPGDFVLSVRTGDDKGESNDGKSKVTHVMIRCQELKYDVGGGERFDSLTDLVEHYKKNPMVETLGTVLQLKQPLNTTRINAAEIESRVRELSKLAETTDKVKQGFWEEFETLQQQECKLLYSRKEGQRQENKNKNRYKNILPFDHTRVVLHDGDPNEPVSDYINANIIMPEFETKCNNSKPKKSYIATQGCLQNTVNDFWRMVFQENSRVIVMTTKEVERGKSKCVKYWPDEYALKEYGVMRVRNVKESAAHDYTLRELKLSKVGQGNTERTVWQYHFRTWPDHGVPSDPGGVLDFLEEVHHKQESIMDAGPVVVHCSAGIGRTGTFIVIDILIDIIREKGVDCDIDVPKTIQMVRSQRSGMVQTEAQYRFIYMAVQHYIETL
# In short: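 SHP-2 (Met1-Leu525, 0.5 nM final) preincubated 30 min with compounds and IRS1 activating peptide in HEPES pH 7.2 buffer with NaCl, KCl, EDTA, tween-20, 5 mM DTT. DiFMUP then added for 30 min at room temperature and fluorescence read. IC50 from four-parameter logistic fit of % inhibition.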
# [2] = test system: ERK phosphorylation in KYSE-520 cells; assay: Phospho-ERK cellular assay (Advanced phospho-ERK1/2 (Thr202/Tyr204) TR-FRET kit); type: cell-based; details: Homo sapiens, KYSE-520, 2 h, KYSE-520 cells, 2 h at 37° C., TR-FRET; read-out: pERK IC50
# Protocol: Phospho-ERK Cellular Assay
# ERK phosphorylation was detected using the “Advanced phospho-ERK1/2 (Thr202/Tyr204)” TR-FRET kit (Cisbio, Cat #64AERPEG/H), following the manufacturer reagents and instructions. […] After an overnight incubation, cells were treated with DMSO serial diluted compounds and incubated for 2 h at 37° C. After incubation, 2 μL/well of 4× Lysis Buffer (Cisbio 64KL1FDF), were added and incubated with cells for 30 min on gentle shaking. Finally, lysates were added with 2 μL/well of Eu cryptate (donor) and D2 (acceptor) conjugated antibodies (as provided by the Cisbio kit #64AERPEG/H) diluted 1:100 in Detection Buffer (as provided by the Cisbio kit #64AERPEG/H). Plates were then sealed and incubated at room temperature in the dark. After an overnight incubation, the TR-FRET signal was detected on a suitable reader (Envision, PerkinElmer). The lower the TR-FRET signal the higher the higher the SHP2 inhibition in cells. […] The percentage activity is fitted against the compound dilutions with a four-parameter logistic regression. The inflection point (i.e. the concentration at which half-maximal inhibition is achieved) is the IC50.
IC50 [1],IC50 [2],SMILES
< 0.5 µM,< 1 µM,"N[C@@H]1c2ccccc2CC12CCN(c1nc3ncc(Sc4cccc5nccnc45)nc3[nH]1)CC2 [Example 179, (S)-1′-(5-(quinoxalin-5-ylthio)-1H-imidazo[4,5-b]pyrazin-2-yl)-1,3-dihydrospiro[indene-2,4′-piperidin]-1-amine]"
< 0.5 µM,< 1 µM,"N[C@@H]1c2ccccc2CC12CCN(c1nc3ncc(Sc4ccnc5nccnc45)nc3[nH]1)CC2 [Example 194, (S)-1′-(6-(pyrido[2,3-b]pyrazin-8-ylthio)-1H-imidazo[4,5-b]pyrazin-2-yl)-1,3-dihydrospiro[indene-2,4′-piperidin]-1-amine]"
< 0.5 µM,1 to 5 µM,"CC1(N)CCN(c2nc3nc(Sc4cccc5ccccc45)cnc3[nH]2)CC1 [Example 60, 4-methyl-1-(5-(naphthalen-1-ylthio)-1H-imidazo[4,5-b]pyrazin-2-yl)piperidin-4-amine]"
0.5 to 3 µM,> 5 µM,"CC1(N)CCN(c2nc3nc(Sc4cccc(Cl)c4Cl)ncc3[nH]2)CC1 [Example 144, 1-(2-((2,3-dichlorophenyl)thio)-7H-purin-8-yl)-4-methylpiperidin-4-amine]"
< 0.5 µM,< 1 µM,"N[C@@H]1c2ccncc2CC12CCN(c1nc3ncc(Sc4ccnc(NC5CC5)c4Cl)nc3[nH]1)CC2 [Example 196, (S)-1′-(5-((3-chloro-2-(cyclopropylamino)pyridin-4-yl)thio)-1H-imidazo[4,5-b]pyrazin-2-yl)-5,7-dihydrospiro[cyclopenta[c]pyridine-6,4′-piperidin]-5-amine]"
< 0.5 µM,< 1 µM,"Cn1ncc2nccc(Sc3cnc4[nH]c(N5CCC6(CC5)Cc5ccccc5[C@H]6N)nc4n3)c21 [Example 261, (S)-1′-(5-((1-methyl-1H-pyrazolo[4,3-b]pyridin-7-yl)thio)-1H-imidazo[4,5-b]pyrazin-2-yl)-1,3-dihydrospiro[indene-2,4′-piperidin]-1-amine]"
< 0.5 µM,1 to 5 µM,"COc1ccc2nccc(Sc3cnc4[nH]c(N5CCC6(CC5)Cc5ccccc5[C@H]6N)nc4n3)c2n1 [Example 220, (S)-1′-(5-((6-methoxy-1,5-naphthyridin-4-yl)thio)-1H-imidazo[4,5-b]pyrazin-2-yl)-1,3-dihydrospiro[indene-2,4′-piperidin]-1-amine]"
< 0.5 µM,1 to 5 µM,"Nc1nccc(Sc2cnc3[nH]c(N4CCC5(CC4)Cc4ccccc4[C@H]5N)cc3n2)c1Cl [Example 265, (S)-1′-(2-((2-amino-3-chloropyridin-4-yl)thio)-5H-pyrrolo[2,3-b]pyrazin-6-yl)-1,3-dihydrospiro[indene-2,4′-piperidin]-1-amine]"
< 0.5 µM,< 1 µM,"N[C@@H]1c2ccccc2CC12CCN(c1nc3nc(Sc4ccnc(N5CC(O)C5)c4Cl)cnc3[nH]1)CC2 [Example 165, (S)-1-(4-((2-(1-amino-1,3-dihydrospiro[indene-2,4′-piperidin]-1′-yl)-1H-imidazo[4,5-b]pyrazin-5-yl)thio)-3-chloropyridin-2-yl)azetidin-3-ol]"
< 0.5 µM,< 1 µM,"N[C@@H]1c2ccccc2CC12CCN(c1nc3nc(Sc4nccnc4Cl)cnc3[nH]1)CC2 [Example 158, (S)-1′-(5-((3-chloropyrazin-2-yl)thio)-1H-imidazo[4,5-b]pyrazin-2-yl)-1,3-dihydrospiro[indene-2,4′-piperidin]-1-amine]"
< 0.5 µM,< 1 µM,"Cc1ccnc2c(Sc3cnc4[nH]c(N5CCC6(CC5)Cc5ccccc5[C@H]6N)nc4n3)ccnc12 [Example 254, (S)-1′-(5-((8-methyl-1,5-naphthyridin-4-yl)thio)-1H-imidazo[4,5-b]pyrazin-2-yl)-1,3-dihydrospiro[indene-2,4′-piperidin]-1-amine]"
